Key:
ErbB4 = ErbB4 (Homo sapiens, UniProt Q15303); test: kinase profiling, ErbB4; type: biochemical; details: read-out: In vitro kinase inhibitory activity (%)
Procedure: (§1) Kinase inhibitory activity of the candidate compound at 10 μM and 25 μM was assessed using Eurofins Kinase Profiling Services. Inhibitory effects on c-RAF, EGFR, ErbB2, ErbB4, and PI3 kinase were analyzed according to the Kinase Profiler Service Assay protocol.

MED23-ELK1 PPI = molecular target: T1, MED23-ELK1 PPI (Homo sapiens, UniProt Q9ULK4); test: immunoprecipitation, MED23-ELK1 PPI; type: cell-based
T1 construct: co-immunoprecipitation of ELK1, probably endogenous
T1 sequence (Q9ULK4 whole entry): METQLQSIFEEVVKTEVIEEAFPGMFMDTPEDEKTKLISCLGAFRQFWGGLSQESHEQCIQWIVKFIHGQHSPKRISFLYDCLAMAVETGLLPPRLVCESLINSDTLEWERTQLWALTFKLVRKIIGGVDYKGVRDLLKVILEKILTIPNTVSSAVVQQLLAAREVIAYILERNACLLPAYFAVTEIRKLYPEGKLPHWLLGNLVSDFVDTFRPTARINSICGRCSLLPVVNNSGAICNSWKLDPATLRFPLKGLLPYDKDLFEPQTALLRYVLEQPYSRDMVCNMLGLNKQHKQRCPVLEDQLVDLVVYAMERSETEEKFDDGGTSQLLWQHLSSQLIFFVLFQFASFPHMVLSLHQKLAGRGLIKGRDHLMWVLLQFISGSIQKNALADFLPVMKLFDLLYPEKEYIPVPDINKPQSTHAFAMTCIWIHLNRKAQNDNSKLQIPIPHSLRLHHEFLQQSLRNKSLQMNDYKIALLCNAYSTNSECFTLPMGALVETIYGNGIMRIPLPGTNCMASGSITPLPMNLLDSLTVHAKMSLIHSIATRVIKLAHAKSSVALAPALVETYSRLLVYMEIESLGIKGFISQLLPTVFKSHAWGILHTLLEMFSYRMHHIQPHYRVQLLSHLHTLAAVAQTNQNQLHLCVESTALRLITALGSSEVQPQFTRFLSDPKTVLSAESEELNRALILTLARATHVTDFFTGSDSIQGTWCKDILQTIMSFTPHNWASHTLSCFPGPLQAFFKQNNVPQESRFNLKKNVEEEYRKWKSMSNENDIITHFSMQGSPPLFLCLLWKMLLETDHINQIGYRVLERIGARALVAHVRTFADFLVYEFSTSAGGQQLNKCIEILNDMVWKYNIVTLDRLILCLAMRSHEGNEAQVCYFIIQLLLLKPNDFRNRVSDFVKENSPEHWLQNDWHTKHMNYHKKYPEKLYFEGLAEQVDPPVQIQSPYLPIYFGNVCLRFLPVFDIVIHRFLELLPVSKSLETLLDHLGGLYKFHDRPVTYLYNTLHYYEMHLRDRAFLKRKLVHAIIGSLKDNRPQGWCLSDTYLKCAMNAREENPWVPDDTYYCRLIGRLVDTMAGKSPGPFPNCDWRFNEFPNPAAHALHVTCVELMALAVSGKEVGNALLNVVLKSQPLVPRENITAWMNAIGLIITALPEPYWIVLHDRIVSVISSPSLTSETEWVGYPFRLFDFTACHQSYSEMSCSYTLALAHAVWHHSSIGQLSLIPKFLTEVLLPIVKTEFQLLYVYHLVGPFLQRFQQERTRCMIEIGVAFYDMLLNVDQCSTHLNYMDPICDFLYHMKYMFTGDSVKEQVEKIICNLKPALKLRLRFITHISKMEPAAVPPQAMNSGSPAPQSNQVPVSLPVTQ
Procedure: NCI-N87 cells from a gastric cancer cell line were seeded in a 100 mm cell culture dish and cultured until they reached 60-70% confluence. The cultured cells were transfected with p3Xflag-myc-CMV26-empty or p3Xflag-myc-CMV26-MED23^WT plasmids using Lipofectamine® 2000 (Invitrogen, USA). After transfection, YK1 (5 μM) was added 12 hours post-transfection, and the cells were cultured for 12 hours. A total of 750 μg of cell lysate was incubated with 20 μL of FLAG-agarose bead slurry (Sigma Aldrich, USA) on a rotator at 4 °C for 4 hours. The sample was centrifuged at 12,000 rpm for 1 minute to precipitate the beads. After removing the supernatant, the remaining beads were washed three times with 200 μL of lysis buffer (RIPA).
After removing the final supernatant, the beads were eluted by boiling with 2× sample buffer at 98 °C for 5 minutes. The immunoprecipitated proteins were loaded, separated by SDS-PAGE, and analyzed by Western blotting.

Ki-67 = test: IHC of NCI-N87 xenograft tumors, Ki-67; type: in vivo, mice; details: vs control group
Procedure: (§2) Xenograft mice were generated to evaluate the anticancer effects of the candidate compound. NCI-N87 and JIMT-1 cells (5×10^6 cells), dissolved in 100 μL of 1× phosphate-buffered saline (PBS), were subcutaneously injected into the right flanks of 5-week-old female athymic nude mice (Envigo, USA) or 4-week-old female NOD-SCID mice (Koatech, South Korea). When the tumors reached a volume of 90-100 mm^3, the mice were randomized into designated groups. For the NCI-N87 xenograft, intravenous administration was performed six times at 3-day intervals. For the JIMT-1 xenograft, intraperitoneal administration was performed eight times at 3-day intervals. […] Tumor size changes were monitored until the mean tumor size in the control group reached 2,000-2,500 mm^3. On day 28 for the NCI-N87 xenograft and day 46 for the JIMT-1 xenograft, the mice were sacrificed, and tumors were excised to determine relative tumor sizes. Tumor length (L) and width (W) were measured with calipers, and tumor volume was calculated using the formula: […]
For immunohistochemistry (IHC) analysis, tumors from the xenograft models were prepared as paraffin-embedded sections. […] The control group was counterstained with hematoxylin, and the IHC staining was evaluated under an optical microscope at 200× magnification.

[1] = molecular target: HER family kinases (EGFR, ErbB2, and ErbB4) or kinases associated with the AKT/MAPK pathway (PI3 kinase and c-RAF); test: kinase profiling, summary over the panel; type: biochemical; details: 10 μM and 25 μM
Procedure: as §1

MED23391-625 fragment = MED23391-625 fragment (Homo sapiens, UniProt Q9ULK4); test: LC-MS/MS protein-small molecule interaction, MED23 fragments; type: binding
Chain of MED23391-625 fragment (Q9ULK4 391-625): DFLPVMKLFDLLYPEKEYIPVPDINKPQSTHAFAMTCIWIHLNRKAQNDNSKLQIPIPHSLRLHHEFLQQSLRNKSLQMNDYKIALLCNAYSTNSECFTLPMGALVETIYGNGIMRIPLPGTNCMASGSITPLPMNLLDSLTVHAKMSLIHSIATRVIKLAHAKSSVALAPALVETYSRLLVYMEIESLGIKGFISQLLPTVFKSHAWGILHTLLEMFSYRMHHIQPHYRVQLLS

NCI-N87 xenograft = test: NCI-N87 xenograft, tumor growth; type: in vivo, mice; details: 4 mg/kg, intravenous, six times at 3-day intervals
Procedure: as §2

Chain of ErbB4 (Q15303 26-1308): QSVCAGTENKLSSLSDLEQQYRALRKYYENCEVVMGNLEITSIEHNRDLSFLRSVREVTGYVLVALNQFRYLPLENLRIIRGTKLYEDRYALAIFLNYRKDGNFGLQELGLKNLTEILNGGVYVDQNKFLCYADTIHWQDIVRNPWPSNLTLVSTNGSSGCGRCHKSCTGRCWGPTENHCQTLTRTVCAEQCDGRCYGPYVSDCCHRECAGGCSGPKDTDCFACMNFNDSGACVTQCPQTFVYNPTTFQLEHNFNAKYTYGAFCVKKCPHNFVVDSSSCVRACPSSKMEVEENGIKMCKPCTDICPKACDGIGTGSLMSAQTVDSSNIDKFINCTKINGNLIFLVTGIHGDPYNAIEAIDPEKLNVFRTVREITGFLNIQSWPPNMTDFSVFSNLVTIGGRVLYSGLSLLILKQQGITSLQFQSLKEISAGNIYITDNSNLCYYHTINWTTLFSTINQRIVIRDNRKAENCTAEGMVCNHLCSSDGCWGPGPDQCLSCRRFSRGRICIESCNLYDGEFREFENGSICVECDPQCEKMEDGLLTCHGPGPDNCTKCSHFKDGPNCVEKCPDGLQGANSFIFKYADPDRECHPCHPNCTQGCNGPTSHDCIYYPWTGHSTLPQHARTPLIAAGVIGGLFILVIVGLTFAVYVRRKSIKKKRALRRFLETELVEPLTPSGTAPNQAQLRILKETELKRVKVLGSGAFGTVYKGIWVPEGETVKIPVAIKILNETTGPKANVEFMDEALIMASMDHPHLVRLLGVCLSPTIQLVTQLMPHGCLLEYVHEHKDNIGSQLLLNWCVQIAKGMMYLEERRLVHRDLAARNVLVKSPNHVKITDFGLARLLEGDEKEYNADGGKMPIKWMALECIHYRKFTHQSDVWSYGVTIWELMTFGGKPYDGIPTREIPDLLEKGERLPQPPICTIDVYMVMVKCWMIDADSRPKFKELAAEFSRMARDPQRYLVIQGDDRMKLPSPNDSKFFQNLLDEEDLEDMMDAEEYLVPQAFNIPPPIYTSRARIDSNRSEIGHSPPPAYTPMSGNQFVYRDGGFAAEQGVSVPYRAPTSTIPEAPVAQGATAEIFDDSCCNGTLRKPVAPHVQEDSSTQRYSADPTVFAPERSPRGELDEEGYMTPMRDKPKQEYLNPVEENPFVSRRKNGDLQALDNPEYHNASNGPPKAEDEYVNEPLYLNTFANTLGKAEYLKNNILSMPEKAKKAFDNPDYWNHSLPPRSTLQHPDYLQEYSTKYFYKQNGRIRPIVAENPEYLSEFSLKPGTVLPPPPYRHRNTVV

`CC(=O)N1N=C(c2cccc(O)c2)CC1c1ccc(Cl)cc1` (stereo not shown) [Compound 15, 1-[5-(4-Chlorophenyl)-3-(3-hydroxyphenyl)-4,5-dihydropyrazol-1-yl]-ethanone] was tested, and the inhibition at 10 µM (ErbB4; ErbB4, 10 μM) was 0%, the inhibition at 25 µM (ErbB4; ErbB4, 25 μM) was 0% and the “PPI inhibitory effect on MED23-ELK1” value (MED23-ELK1 PPI) was “did not inhibit these PPIs”. For the same compound, the “proliferation marker Ki-67” value (Ki-67) was “significant decrease”, the “kinase inhibitory activity in words” value [1] was “no significant inhibitory activity” and the “interaction with MED23 fragments” value (MED23391-625 fragment) was “specifically interacted with the MED23391-625 fragment”. The “tumor volume / growth” value (NCI-N87 xenograft) was “tumor volume was significantly reduced, and tumor growth was delayed”.
